Where two headings read alike, the source gives them in different places.
Assays:
PC-3 cells = experiment: MTT assay of cell proliferation, PC-3 cells; assay type: cell-based; conditions: Homo sapiens, read-out: IC50 inhibiting cell proliferation
Procedure: (§1) The inhibitive effects of fangchinoline on proliferation of PC-3 cells or LnCap cells was observed by checking cell viability of cells using MTT assay as described before. Briefly, cells were seeded in 96-well plates at a density of 5×10^4 cells/mL for PC-3 cell and 4×10^4 cells/mL for LnCap cells. After overnight culture, the media were changed into fresh media containing various concentrations of fangchinoline or 0.1% DMSO (solvent control) for 24, 48 h or 72 h. Cell viability was evaluated by measuring the mitochondrial-dependent conversion of the yellow tetrazolium salt MTT to purple formazan crystals by metabolic active cells. The optical density (proportional to the number of live cells) was assessed with a Microplate Reader Bio-Rad 550 at 570 nm. IC50 value (half-maximal inhibitory concentration) was calculated by the Logit method.

[1] = tested on: T1, cellular proteasome of PC-3 cells; experiment: Cellular proteasome activities of PC-3 cells; assay type: cell-based, human
T1 construct: endogenous in cells; host or cells: PC-3 cells, whole cell extract
Procedure: (§2) Cells were treated with either solvent control (0.1% DMSO), fangchinoline at different concentrations, or 1 μM carfilzomib (positive control) for 24 h at 37 °C. The enzymatic activities of cellular proteasome in cell lysate were measured as reported in our previous paper. Briefly, cells were harvested, washed with PBS and then lysed in proteasome activity assay buffer for 30 min at 4°C. The homogenate was then centrifuged at 12000 × g for 30 min at 4°C. The supernatant was collected as whole cell extract and the protein content in the supernatant was measured with the Bradford reagent. Catalytic activities of cellular proteasome were assayed by adding whole cell extract (containing 30 μg protein) to 100 μL of proteasome activity assay buffer containing 50 μM fluorogenic peptide substrates such as Z-LLE-AMC for detecting C-L activity, Z-ARR-AMC for detecting T-L activity or Suc-LLVY-AMC for detecting CT-L activity, respectively. The release of fluorogenic AMC from the peptide substrates was then measured as described above.

[2] = tested on: T2, cellular proteasome of LnCap cells; experiment: Cellular proteasome activities of LnCap cells; assay type: cell-based, human; conditions: 24 h
T2 construct: endogenous in cells; host or cells: LnCap cells, whole cell extract
Procedure: as §2

[3] = tested on: PC-3 cells with over-expression of proteasome β1 subunit; experiment: MTT assay in PC-3 cells over-expressing proteasome β1 subunit (PSMB6 plasmid); assay type: cell-based, human; conditions: 24 h, 48 h or 72 h treatment
Procedure: as §1
Cells with over-expression of proteasome β1 subunit were obtained by transfection with pcDNA3.1 plasmid encoding full-length human PSMB6 cDNA as described before. For plasmid transfection, 5 × 10^5 cells were seeded into each well of a six-well plate until the cells reached approximately 80% confluence after cultured for 24 h. […]

COc1ccc2cc1Oc1ccc(cc1)C[C@H]1c3cc(c(OC)cc3CCN1C)Oc1c(O)c(OC)cc3c1[C@H](C2)N(C)CC3 [fangchinoline]
IC50 (PC-3 cells; 24 h): 27.5 ± 3.35 µM
IC50 (PC-3 cells; 48 h): 13.1 ± 1.58 µM
IC50 (PC-3 cells; 72 h): 7.25 ± 0.312 µM
Inhibition of enzyme activity of cellular proteasome β1 subunit ([1]; 10 μM, 24 h treatment): about 50%
Effect on chymotrypsin-like (CT-L) activity of cellular proteasome ([1]; PC-3 cells, 24 h): not significantly affected
Effect on trypsin-like (T-L) activity of cellular proteasome ([1]; PC-3 cells, 24 h): not significantly affected
Inhibition on C-L activity of cellular proteasome ([1]; PC-3 cells, 24 h, doses of 1 and 10 μM): significant
Effect on CT-L activity of cellular proteasome [2]: did not affect
Effect on T-L activity of cellular proteasome [2]: did not affect
Inhibition of C-L activity of cellular proteasome [2]: significantly inhibit
Sensitivity of cells with over-expression of proteasome β1 subunit to cytotoxicity vs wild type and negative control [3]: more sensitive
